One experiment deals with T1, rCuaA (Ruminiclostridium cellulolyticum, UniProt B8I424).
T1 construct: gene Ccel_2112; mature protein (lipoprotein signal peptide removed, putative cleavage at amino acid 22), N-terminal His6, pET22b(+), E. coli BL21(DE3)
The experiment is described as follows: isothermal titration calorimetry. The class given is binding. Particulars: 20 °C, 150 mM NaCl, 25 mM HEPES, pH 7.0. From the text: isothermal titration calorimetry on rCuaA

The next experiment deals with T2, rCuaD (Ruminiclostridium cellulolyticum, UniProt B8I427).
T2 construct: gene Ccel_2115; mature protein (lipoprotein signal peptide removed, putative cleavage at amino acid 20), N-terminal His6, pET22b(+), E. coli BL21(DE3)
T2 sequence (B8I427 entry or part of it): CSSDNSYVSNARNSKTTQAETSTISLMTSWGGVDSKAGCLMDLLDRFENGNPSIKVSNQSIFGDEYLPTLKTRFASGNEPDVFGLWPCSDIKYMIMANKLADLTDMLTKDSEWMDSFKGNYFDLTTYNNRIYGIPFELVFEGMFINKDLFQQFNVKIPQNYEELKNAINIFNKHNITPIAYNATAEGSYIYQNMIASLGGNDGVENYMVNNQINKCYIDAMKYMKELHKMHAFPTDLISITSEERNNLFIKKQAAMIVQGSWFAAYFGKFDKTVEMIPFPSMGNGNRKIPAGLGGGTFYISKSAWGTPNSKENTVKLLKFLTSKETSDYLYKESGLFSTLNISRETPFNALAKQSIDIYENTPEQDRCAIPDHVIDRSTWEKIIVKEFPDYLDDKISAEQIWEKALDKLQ
The experiment is described as follows: isothermal titration calorimetry. The conditions noted are these: 20 °C, 150 mM NaCl, 25 mM HEPES, pH 7.0. The class given is binding. From the text: isothermal titration calorimetry on rCuaD
Background: ITC needs no label: the signal is the heat of the interaction.

Consider four compounds from article PMC5663094, “A seven-gene cluster in Ruminiclostridium cellulolyticum is essential for signalization, uptake and catabolism of the degradation products of cellulose hydrolysis” (Biotechnology for Biofuels, 2017).

T1 sequence (B8I424 entry or part of it): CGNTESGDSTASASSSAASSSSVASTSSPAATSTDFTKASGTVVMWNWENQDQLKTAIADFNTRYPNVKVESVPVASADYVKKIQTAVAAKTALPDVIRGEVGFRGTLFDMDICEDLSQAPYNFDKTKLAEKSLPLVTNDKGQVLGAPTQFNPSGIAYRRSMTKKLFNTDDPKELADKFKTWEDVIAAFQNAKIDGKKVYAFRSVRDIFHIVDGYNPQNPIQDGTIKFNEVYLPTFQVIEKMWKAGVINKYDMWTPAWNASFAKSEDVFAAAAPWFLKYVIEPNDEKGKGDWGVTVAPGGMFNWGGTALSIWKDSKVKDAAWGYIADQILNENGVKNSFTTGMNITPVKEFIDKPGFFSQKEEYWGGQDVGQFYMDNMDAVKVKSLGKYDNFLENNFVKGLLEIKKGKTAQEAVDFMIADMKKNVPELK

In turn, `OC[C@H]1O[C@@H](O[C@H]2[C@H](O)[C@@H](O)[C@H](O[C@H]3[C@H](O)[C@@H](O)[C@H](O[C@H]4[C@H](O)[C@@H](O)C(O)O[C@@H]4CO)O[C@@H]3CO)O[C@@H]2CO)[C@H](O)[C@@H](O)[C@@H]1O` (some centres unmarked) [G4, cellotetraose] showed a Kd at rCuaA of 644 ± 58 nM. Still for that read-out and setting: to `OC[C@H]1O[C@@H](O[C@H]2[C@H](O)[C@@H](O)[C@H](O[C@H]3[C@H](O)[C@@H](O)C(O)O[C@@H]3CO)O[C@@H]2CO)[C@H](O)[C@@H](O)[C@@H]1O` (some centres unmarked) [G3, cellotriose] belongs 405 ± 110 nM.

In turn, `OC[C@H]1O[C@@H](O[C@H]2[C@H](O)[C@@H](O)[C@H](O[C@H]3[C@H](O)[C@@H](O)[C@H](O[C@H]4[C@H](O)[C@@H](O)[C@H](O[C@H]5[C@H](O)[C@@H](O)C(O)O[C@@H]5CO)O[C@@H]4CO)O[C@@H]3CO)O[C@@H]2CO)[C@H](O)[C@@H](O)[C@@H]1O` (some centres unmarked) [G5, cellopentaose] registered a Kd on rCuaA of 1860 ± 130 nM. This Kd lies about 4.6-fold higher than the previous one.

In the case of `OC[C@H]1O[C@@H](O[C@H]2[C@H](O)[C@@H](O)C(O)O[C@@H]2CO)[C@H](O)[C@@H](O)[C@@H]1O` (some centres unmarked) [G2, cellobiose], the Kd at rCuaA is 240 ± 20 nM; at rCuaD, 23 ± 3 nM.

By Kd is commonly meant the constant that tells how readily two partners part at equilibrium. High values mean a looser complex, low ones a tighter complex.
